This is an account of results in article PMC8049364, “Quantification of Macrophage-Driven Inflammation During Myocardial Infarction with ^18F-LW223, a Novel TSPO Radiotracer with Binding Independent of the rs6971 Human Polymorphism” (Journal of Nuclear Medicine, 2021).

Data set [1] deals with TSPO. Kind of data set: In vitro competition binding assay with ^3H-PK11195 in human heart homogenates (HAB, MAB, LAB). Particulars: for Effect of rs6971 genetic polymorphism on Ki: human heart; for LAB/HAB ratio: human heart homogenates, rs6971 genotyped. As for the experimental part:
(§1) All studies using human tissue were conducted in accordance with the National Health Service Research Ethics Committee South East Scotland (Edinburgh Brain and Tissue Bank, 16/ES/0084). Supplemental Table 1 contains the Brain Bank Network reference number for all tissues used from the Edinburgh Brain and Tissue Bank. […] Samples were homogenized in ×10 w/v buffer (50 mM Tris-Base, pH 7.4, 4°C) before centrifugation (32,000g, 10 min, 4°C). Tissue pellets were then resuspended in ×10 w/v buffer and centrifuged again before resuspending in 2 mL of buffer. Samples were assessed for protein concentration using the Bio-Rad protein assay, aliquoted, and stored at −80°C until use. The competition binding assay protocol was adjusted from a previously reported protocol ([16]), as detailed within the supplemental materials.
(§2) In Vitro Human Competition Binding Assays
(§3) Briefly, 250 µg protein/mL in 200 µl of buffer was added to 100 µl of 1 nM 3H- […]
(§4) Aldrich, USA), PBR28 (ABX, Germany), AB5186 or LW223 at 14 different concentrations (0.001-3000 nM) for 90 min at 4 °C. Binding was terminated with the addition of ice cold buffer before being immediately filtered over a Whatman GF/B filters (Whatman, UK) pre-treated with 0.3% polyethylenimine (Sigma-Aldrich, USA) using a Brandel harvester (Brandel, USA). Filter paper was then removed, placed into 2.5 mL of Optiphase HiSafe 3 (Perkin Elmer, USA) and counted 48 hours later on a Hidex 300 SL (Hidex, Finland).
(§5) All binding assays were performed
(§6) GraphPad Prism version 6 (GraphPad Software, USA) was used to fit all binding affinity curves. A comparison of a one-site and two-site models was made using the least squares algorithm and model selection was compared using an F test. The null hypothesis (one-site fitting as more suitable) was rejected if p<0.05. Normalized mean […]
(§7) saturation binding results, Sup.Fig.2) was used to determine the best fitting model and to calculate LAB:HAB ratios. Affinity values (Ki) were calculated by fitting individual tissue

Data set [2] addresses T1, TSPO (Homo sapiens, UniProt P30536). Nature of the data set: In vitro competition binding assay with ^3H-PK11195 in human brain homogenates (HAB, MAB, LAB). The note with it: for LAB/HAB ratio: human brain homogenates, rs6971 genotyped. As to the method: as §1, §2, §3, §4, §5, §6, §7
Data set [3] addresses T1, TSPO. Nature of the data set: In vitro competition binding assay with ^3H-PK11195 in human heart homogenates (HAB, MAB, LAB). Particulars: human heart. As for the experimental part:
as §1, §2, §3, §4, §5, §6, §7

Data set [4] deals with TSPO. The note with it: cited from earlier work.
The conditions of data set [5]: humans; cited from earlier work.
The conditions of data set [6]: cited from earlier work.
For data set [7], the system named is TSPO. The note with it: humans; cited from earlier work.

T1 sequence (P30536 2-169): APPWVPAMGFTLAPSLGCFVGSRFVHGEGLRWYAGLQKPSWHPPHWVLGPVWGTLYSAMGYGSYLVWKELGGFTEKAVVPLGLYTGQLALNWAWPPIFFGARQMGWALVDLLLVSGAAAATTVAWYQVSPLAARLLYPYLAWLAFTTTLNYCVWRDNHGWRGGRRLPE

Regarding `CCN(CC)C(=O)c1nc2ccccc2c(-c2ccccc2)c1CF` [AB5186], the “Effect of rs6971 genetic polymorphism on Ki” value (“Effect” below) in data set [1] and in data set [2] (human brain) was “affected” in each case. For the same molecule, the LAB/HAB ratio in data set [1] is reported as 7; in data set [2] it was 9.
A word on the Ki: it is a dissociation constant, usually derived from enzyme kinetics or from competition with a known ligand. Low readings indicate tighter binding, high ones weaker binding. With `CC[C@@H](C)N(C)C(=O)c1nc2ccccc2c(-c2ccccc2)c1CF` [LW223], the Ki in data set [3] amounted to 1.7 nM; in data set [2] (human brain), 0.6 nM. For the same molecule, the “Effect” value in data set [1] and in data set [2] (human brain) was “unaffected” throughout. Besides, the LAB/HAB ratio in data set [1] and in data set [2] was 1 each time.
`COc1ccccc1CN(C(C)=O)c1cnccc1Oc1ccccc1` [PBR28, reference compound]: in data set [1], the “Effect” value is reported as “affected” and the LAB/HAB ratio stood at 48. Moreover, the LAB/HAB ratio in data set [2] came to 48.
As to `CC[C@@H](C)N([11CH3])C(=O)c1nc(-c2ccccc2Cl)c2ccccc2n1` [^11C-ER176], the “VT in the brain” value in data set [4] is on record as 1.6–3.5 mL/cm^3. In addition, the “parent free fraction in plasma” value in data set [5] is recorded as 3.3%.
Consider `CCC(C)N([11CH3])C(=O)c1cc2ccccc2c(-c2ccccc2Cl)n1` (centres unmarked) [^11C-PK11195], for which the parent in plasma in data set [6] (same lower species (rat)) is around 40%. Further, the “VT in the brain” value in data set [4] is 0.6–0.74 mL/cm^3. For the same molecule, in data set [7], the “SUVpeak, heart” value is reported as 5 and the “SUVpeak, lung” value is 3. Also, the “parent free fraction in plasma” value in data set [5] was 1%.
For the molecule `CN(C(=O)Cn1c(=O)oc2ccc(-c3ccc(OCC[18F])cc3)cc21)c1ccccc1` [^18F-FEBMP], in data set [6] (rats, 30 min after injection), the “original parent compound found in blood” value is listed as “less than 10%”.
Turning to `CCN(CC)C(=O)[C@H]1CCCc2c1c1c(OC)cccc1n2CC[18F]` [^18F-GE180, Flutriciclamide], the “VT in the brain” value in data set [4] was 0.10–0.28 mL/cm^3.
Regarding `CCN(CC)C(=O)Cc1c(-c2ccc(OCCC[18F])cc2)nc2ccc(Cl)cn12` [^18F-PBR111], the “VT in the brain” value in data set [4] is given as 2.22–4.03 mL/cm^3.
